{"source": "patent US12281080B2", "about": "“Quinoline-based compounds and methods of inhibiting CDK8/19” (University of South Carolina, priority 2018, dated 2025)", "key": {"YANK3 (STK32C)": {"biological_target": "YANK3 (STK32C) (Homo sapiens (Human), UniProt Q86UX6)", "experiment": "KINOMEscan scanMAX", "assay_type": "binding", "conditions": "2000 nM; read-out: Percent Control"}, "RET(M918T)": {"biological_target": "RET(M918T) (Homo sapiens (Human), UniProt P07949, M918T)", "experiment": "KINOMEscan scanMAX", "assay_type": "binding", "conditions": "2000 nM; read-out: Percent Control"}, "CAMKK1": {"biological_target": "CAMKK1 (Homo sapiens (Human), UniProt Q8N5S9)", "experiment": "KINOMEscan scanMAX", "assay_type": "binding", "conditions": "2000 nM; read-out: Percent Control"}, "PIK3CA(C420R)": {"biological_target": "PIK3CA(C420R) (Homo sapiens (Human), UniProt P42336, C420R)", "experiment": "KINOMEscan scanMAX", "assay_type": "binding", "conditions": "2000 nM; read-out: Percent Control"}, "NEK7": {"biological_target": "NEK7 (Homo sapiens (Human), UniProt Q8TDX7)", "experiment": "KINOMEscan scanMAX", "assay_type": "binding", "conditions": "2000 nM; read-out: Percent Control"}, "GRK3 (ADRBK2)": {"biological_target": "GRK3 (ADRBK2) (Homo sapiens (Human), UniProt P35626)", "sequence (P35626 whole entry)": "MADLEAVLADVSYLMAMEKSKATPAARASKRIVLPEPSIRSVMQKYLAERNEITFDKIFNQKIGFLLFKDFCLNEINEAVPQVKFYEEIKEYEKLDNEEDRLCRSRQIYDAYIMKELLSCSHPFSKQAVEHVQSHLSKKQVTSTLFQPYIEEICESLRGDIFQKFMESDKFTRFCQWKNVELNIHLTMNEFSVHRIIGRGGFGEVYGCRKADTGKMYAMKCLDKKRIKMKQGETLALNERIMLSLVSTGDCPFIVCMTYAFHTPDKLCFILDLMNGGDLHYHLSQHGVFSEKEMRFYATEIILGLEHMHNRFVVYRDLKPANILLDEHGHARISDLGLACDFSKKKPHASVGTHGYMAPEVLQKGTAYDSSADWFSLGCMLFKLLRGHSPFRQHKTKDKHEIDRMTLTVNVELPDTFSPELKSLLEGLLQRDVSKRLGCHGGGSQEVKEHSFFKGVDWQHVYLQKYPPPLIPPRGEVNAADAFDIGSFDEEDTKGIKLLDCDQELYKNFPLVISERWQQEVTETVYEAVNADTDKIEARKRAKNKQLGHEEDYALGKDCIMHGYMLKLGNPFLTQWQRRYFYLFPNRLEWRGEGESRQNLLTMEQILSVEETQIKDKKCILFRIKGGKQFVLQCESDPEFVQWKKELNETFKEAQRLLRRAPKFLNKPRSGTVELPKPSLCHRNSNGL", "experiment": "KINOMEscan scanMAX", "assay_type": "binding", "conditions": "2000 nM; read-out: Percent Control"}, "PIK3CA(E545A)": {"biological_target": "PIK3CA(E545A) (Homo sapiens (Human), UniProt P42336, E545A)", "experiment": "KINOMEscan scanMAX", "assay_type": "binding", "conditions": "2000 nM; read-out: Percent Control"}, "CTK (MATK)": {"biological_target": "CTK (MATK) (Homo sapiens (Human), UniProt P42679)", "sequence (P42679 whole entry)": "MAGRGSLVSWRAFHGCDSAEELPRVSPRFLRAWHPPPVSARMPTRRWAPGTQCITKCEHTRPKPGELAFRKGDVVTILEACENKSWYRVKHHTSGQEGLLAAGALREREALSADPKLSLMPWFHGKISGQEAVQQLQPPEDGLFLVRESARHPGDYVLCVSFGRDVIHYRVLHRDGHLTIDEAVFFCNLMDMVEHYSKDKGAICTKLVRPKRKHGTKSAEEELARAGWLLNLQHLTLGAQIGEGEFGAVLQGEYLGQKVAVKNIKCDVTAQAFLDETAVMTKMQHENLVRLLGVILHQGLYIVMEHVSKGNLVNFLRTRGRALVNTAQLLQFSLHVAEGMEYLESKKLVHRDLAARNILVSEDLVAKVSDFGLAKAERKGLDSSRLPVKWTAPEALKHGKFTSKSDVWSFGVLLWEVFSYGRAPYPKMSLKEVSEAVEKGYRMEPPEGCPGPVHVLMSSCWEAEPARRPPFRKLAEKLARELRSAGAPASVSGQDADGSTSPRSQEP", "experiment": "KINOMEscan scanMAX", "assay_type": "binding", "conditions": "2000 nM; read-out: Percent Control"}, "CDKL3": {"biological_target": "CDKL3 (Homo sapiens (Human), UniProt Q8IVW4)", "experiment": "KINOMEscan scanMAX", "assay_type": "binding", "conditions": "2000 nM; read-out: Percent Control"}, "GRK4": {"biological_target": "GRK4 (Homo sapiens (Human), UniProt P32298)", "experiment": "KINOMEscan scanMAX", "assay_type": "binding", "conditions": "2000 nM; read-out: Percent Control"}, "PIK3CA(H1047L)": {"biological_target": "PIK3CA(H1047L) (Homo sapiens (Human), UniProt P42336, H1047L)", "experiment": "KINOMEscan scanMAX", "assay_type": "binding", "conditions": "2000 nM; read-out: Percent Control"}, "RET": {"biological_target": "RET (Homo sapiens (Human), UniProt P07949)", "experiment": "KINOMEscan scanMAX", "assay_type": "binding", "conditions": "2000 nM; read-out: Percent Control"}, "IRAK1": {"biological_target": "IRAK1 (Homo sapiens (Human), UniProt P51617)", "experiment": "KINOMEscan scanMAX", "assay_type": "binding", "conditions": "2000 nM; read-out: Percent Control"}, "PRKCQ": {"biological_target": "PRKCQ (Homo sapiens (Human), UniProt Q04759)", "experiment": "KINOMEscan scanMAX", "assay_type": "binding", "conditions": "2000 nM; read-out: Percent Control"}, "STK16": {"biological_target": "STK16 (Homo sapiens (Human), UniProt O75716)", "experiment": "KINOMEscan scanMAX", "assay_type": "binding", "conditions": "2000 nM; read-out: Percent Control"}, "TLK2": {"biological_target": "TLK2 (Homo sapiens (Human), UniProt Q86UE8)", "experiment": "KINOMEscan scanMAX", "assay_type": "binding", "conditions": "2000 nM; read-out: Percent Control"}, "TRKA (NTRK1)": {"biological_target": "TRKA (NTRK1) (Homo sapiens (Human), UniProt P04629)", "experiment": "KINOMEscan scanMAX", "assay_type": "binding", "conditions": "2000 nM; read-out: Percent Control"}, "FLT1": {"biological_target": "FLT1 (Homo sapiens (Human), UniProt P17948)", "experiment": "KINOMEscan scanMAX", "assay_type": "binding", "conditions": "2000 nM; read-out: Percent Control"}, "FER": {"biological_target": "FER (Homo sapiens (Human), UniProt P16591)", "sequence (P16591 whole entry)": "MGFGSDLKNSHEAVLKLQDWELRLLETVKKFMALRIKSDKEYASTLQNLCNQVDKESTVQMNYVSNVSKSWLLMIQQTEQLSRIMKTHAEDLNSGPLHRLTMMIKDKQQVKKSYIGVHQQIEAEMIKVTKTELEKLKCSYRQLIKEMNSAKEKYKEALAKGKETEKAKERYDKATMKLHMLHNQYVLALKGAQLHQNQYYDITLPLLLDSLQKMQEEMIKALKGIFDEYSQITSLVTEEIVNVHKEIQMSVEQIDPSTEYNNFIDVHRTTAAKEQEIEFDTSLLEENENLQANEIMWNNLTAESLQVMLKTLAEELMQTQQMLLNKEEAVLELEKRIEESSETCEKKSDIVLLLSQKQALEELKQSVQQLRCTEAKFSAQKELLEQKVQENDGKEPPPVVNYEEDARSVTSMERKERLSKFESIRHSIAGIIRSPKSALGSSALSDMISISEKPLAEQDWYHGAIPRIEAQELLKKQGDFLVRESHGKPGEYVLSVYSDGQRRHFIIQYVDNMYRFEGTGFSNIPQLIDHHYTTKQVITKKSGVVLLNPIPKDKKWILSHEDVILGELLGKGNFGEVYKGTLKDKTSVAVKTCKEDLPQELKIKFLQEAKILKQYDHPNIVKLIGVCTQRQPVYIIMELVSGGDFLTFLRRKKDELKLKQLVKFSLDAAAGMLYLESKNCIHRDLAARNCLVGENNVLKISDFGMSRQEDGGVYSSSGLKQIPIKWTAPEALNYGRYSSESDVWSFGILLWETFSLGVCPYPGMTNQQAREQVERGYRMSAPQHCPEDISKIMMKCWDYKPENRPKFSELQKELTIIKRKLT", "experiment": "KINOMEscan scanMAX", "assay_type": "binding", "conditions": "2000 nM; read-out: Percent Control"}, "CDK4-cyclinD1": {"biological_target": "CDK4-cyclinD1 (Homo sapiens (Human), UniProt P11802)", "experiment": "KINOMEscan scanMAX", "assay_type": "binding", "conditions": "2000 nM; read-out: Percent Control"}, "PIK3CA": {"biological_target": "PIK3CA (Homo sapiens (Human), UniProt P42336)", "experiment": "KINOMEscan scanMAX", "assay_type": "binding", "conditions": "2000 nM; read-out: Percent Control"}, "PIK4CB (PI4KB)": {"biological_target": "PIK4CB (PI4KB) (Homo sapiens (Human), UniProt Q9UBF8)", "experiment": "KINOMEscan scanMAX", "assay_type": "binding", "conditions": "2000 nM; read-out: Percent Control"}, "[1]": {"tested_on": "4T1 murine triple-negative breast cancer", "experiment": "4T1 breast cancer metastasis survival model", "assay_type": "in vivo", "conditions": "40 mg/kg, oral, b.i.d., female Balb/c mice after primary tumor removal", "experimental": "4T1 is a murine triple-negative breast cancer (TNBC) cell line, which is highly metastatic to the lungs. 4T1 cells were injected orthotopically in the mammary fat pad of female Balb/c mice and the primary tumors were surgically removed when tumor sizes reach 500-600 mm^3. Mice were then separated into two groups (FIG. 12A, n=8), which were then treated with vehicle (5% dextrose) or Senexin C (40 mg/kg, oral, b.i.d.)."}, "PIK3CG": {"biological_target": "PIK3CG (Homo sapiens (Human), UniProt P48736)", "sequence (P48736 whole entry)": "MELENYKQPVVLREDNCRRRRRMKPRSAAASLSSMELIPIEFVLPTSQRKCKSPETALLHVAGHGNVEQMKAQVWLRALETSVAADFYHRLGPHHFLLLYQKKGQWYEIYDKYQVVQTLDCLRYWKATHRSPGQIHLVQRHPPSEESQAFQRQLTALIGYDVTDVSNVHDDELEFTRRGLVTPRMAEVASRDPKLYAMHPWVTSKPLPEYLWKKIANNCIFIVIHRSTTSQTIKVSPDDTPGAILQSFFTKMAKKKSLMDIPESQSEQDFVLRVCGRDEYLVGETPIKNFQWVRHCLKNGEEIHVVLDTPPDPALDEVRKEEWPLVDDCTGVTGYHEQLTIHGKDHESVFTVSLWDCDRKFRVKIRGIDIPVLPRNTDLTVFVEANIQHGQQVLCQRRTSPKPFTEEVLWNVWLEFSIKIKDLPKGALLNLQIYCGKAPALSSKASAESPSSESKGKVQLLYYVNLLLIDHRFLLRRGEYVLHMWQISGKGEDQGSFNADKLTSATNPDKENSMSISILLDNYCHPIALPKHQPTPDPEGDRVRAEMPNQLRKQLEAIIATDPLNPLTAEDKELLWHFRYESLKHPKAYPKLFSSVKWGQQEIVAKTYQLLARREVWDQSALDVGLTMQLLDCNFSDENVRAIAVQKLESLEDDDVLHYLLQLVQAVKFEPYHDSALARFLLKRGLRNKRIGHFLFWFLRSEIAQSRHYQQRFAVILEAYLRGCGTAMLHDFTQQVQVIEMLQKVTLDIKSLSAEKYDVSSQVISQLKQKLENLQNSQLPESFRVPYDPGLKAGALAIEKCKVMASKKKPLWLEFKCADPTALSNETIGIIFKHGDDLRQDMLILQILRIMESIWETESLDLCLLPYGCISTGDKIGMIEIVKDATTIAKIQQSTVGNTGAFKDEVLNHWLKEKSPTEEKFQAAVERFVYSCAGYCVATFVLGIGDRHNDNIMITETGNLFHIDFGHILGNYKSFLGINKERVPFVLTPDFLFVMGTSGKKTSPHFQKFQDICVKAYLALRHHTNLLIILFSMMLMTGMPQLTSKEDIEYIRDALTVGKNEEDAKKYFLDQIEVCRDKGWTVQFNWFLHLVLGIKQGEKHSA", "experiment": "KINOMEscan scanMAX", "assay_type": "binding", "conditions": "2000 nM; read-out: Percent Control"}, "FLT3(ITD)": {"tested_on": "FLT3(ITD)", "experiment": "KINOMEscan scanMAX", "assay_type": "binding, human", "conditions": "2000 nM"}, "FLT3(D835H)": {"biological_target": "FLT3(D835H) (Homo sapiens (Human), UniProt P36888, D835H)", "experiment": "KINOMEscan scanMAX", "assay_type": "binding", "conditions": "2000 nM; read-out: Percent Control"}, "DRAK1 (STK17A)": {"biological_target": "DRAK1 (STK17A) (Homo sapiens (Human), UniProt Q9UEE5)", "experiment": "KINOMEscan scanMAX", "assay_type": "binding", "conditions": "2000 nM; read-out: Percent Control"}, "RIPK4": {"biological_target": "RIPK4 (Homo sapiens (Human), UniProt P57078)", "sequence (P57078 whole entry)": "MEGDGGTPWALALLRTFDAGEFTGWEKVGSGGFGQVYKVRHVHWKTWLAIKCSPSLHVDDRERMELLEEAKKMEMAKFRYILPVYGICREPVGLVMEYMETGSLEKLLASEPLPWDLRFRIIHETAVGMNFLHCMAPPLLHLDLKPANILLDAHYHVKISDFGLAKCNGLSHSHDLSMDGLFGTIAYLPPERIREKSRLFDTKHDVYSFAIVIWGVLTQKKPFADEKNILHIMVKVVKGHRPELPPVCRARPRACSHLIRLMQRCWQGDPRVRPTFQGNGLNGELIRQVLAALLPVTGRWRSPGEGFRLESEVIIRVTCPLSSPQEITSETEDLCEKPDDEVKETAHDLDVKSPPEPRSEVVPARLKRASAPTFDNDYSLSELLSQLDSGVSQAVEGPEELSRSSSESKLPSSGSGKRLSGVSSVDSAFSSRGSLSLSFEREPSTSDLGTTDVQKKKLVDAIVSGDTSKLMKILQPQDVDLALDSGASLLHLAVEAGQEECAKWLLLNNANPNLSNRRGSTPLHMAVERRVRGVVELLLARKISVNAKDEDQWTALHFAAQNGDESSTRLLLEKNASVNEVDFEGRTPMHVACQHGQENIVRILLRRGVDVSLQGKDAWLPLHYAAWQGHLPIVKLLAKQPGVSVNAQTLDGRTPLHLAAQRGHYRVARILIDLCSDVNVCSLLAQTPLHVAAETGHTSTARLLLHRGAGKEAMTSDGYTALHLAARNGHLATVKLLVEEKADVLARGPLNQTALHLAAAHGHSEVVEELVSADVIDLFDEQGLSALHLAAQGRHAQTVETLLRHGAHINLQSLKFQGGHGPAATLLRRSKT", "experiment": "KINOMEscan scanMAX", "assay_type": "binding", "conditions": "2000 nM; read-out: Percent Control"}, "MYLK4": {"biological_target": "MYLK4 (Homo sapiens (Human), UniProt Q86YV6)", "experiment": "KINOMEscan scanMAX", "assay_type": "binding", "conditions": "2000 nM; read-out: Percent Control"}, "SIK (SIK1)": {"biological_target": "SIK (SIK1) (Homo sapiens (Human), UniProt P57059)", "experiment": "KINOMEscan scanMAX", "assay_type": "binding", "conditions": "2000 nM; read-out: Percent Control"}, "SGK2": {"biological_target": "SGK2 (Homo sapiens (Human), UniProt Q9HBY8)", "experiment": "KINOMEscan scanMAX", "assay_type": "binding", "conditions": "2000 nM; read-out: Percent Control"}, "p38-gamma (MAPK12)": {"biological_target": "p38-gamma (MAPK12) (Homo sapiens (Human), UniProt P53778)", "experiment": "KINOMEscan scanMAX", "assay_type": "binding", "conditions": "2000 nM; read-out: Percent Control"}, "LRRK2(G2019S)": {"biological_target": "LRRK2(G2019S) (Homo sapiens (Human), UniProt Q5S007, G2019S)", "experiment": "KINOMEscan scanMAX", "assay_type": "binding", "conditions": "2000 nM; read-out: Percent Control"}, "ACVR2B": {"biological_target": "ACVR2B (Homo sapiens (Human), UniProt Q13705)", "experiment": "KINOMEscan scanMAX", "assay_type": "binding", "conditions": "2000 nM; read-out: Percent Control"}, "CLK1": {"biological_target": "CLK1 (Homo sapiens (Human), UniProt P49759)", "experiment": "KINOMEscan scanMAX", "assay_type": "binding", "conditions": "2000 nM; read-out: Percent Control"}, "PRKD3": {"biological_target": "PRKD3 (Homo sapiens (Human), UniProt O94806)", "sequence (O94806 whole entry)": "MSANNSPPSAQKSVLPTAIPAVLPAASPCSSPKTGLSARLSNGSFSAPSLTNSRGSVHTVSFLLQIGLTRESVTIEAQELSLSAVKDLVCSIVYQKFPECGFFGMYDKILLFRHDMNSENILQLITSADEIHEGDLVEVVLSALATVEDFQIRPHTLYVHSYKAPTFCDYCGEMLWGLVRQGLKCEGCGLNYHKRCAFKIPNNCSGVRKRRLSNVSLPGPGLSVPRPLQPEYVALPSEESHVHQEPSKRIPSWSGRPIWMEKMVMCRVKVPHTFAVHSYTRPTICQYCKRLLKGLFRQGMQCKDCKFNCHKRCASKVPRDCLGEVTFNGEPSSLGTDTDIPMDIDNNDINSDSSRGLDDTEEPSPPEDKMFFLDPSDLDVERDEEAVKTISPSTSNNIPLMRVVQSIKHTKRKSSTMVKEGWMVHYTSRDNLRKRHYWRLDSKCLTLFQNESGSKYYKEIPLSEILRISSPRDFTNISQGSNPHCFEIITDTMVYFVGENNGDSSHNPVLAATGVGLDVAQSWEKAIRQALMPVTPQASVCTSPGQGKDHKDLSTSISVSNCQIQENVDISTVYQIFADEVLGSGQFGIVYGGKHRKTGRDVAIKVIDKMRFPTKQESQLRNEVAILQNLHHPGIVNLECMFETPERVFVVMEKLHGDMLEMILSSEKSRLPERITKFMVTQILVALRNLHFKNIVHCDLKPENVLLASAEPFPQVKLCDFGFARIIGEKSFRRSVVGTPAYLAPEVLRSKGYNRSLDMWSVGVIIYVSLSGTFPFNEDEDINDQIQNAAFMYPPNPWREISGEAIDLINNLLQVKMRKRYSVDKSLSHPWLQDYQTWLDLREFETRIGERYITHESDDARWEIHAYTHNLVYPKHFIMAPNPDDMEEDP", "experiment": "KINOMEscan scanMAX", "assay_type": "binding", "conditions": "2000 nM; read-out: Percent Control"}, "[2]": {"biological_target": "ABL1(H396P)-phosphorylated (Homo sapiens (Human), UniProt P00519, H396P)", "experiment": "KINOMEscan scanMAX", "assay_type": "binding", "conditions": "2000 nM; read-out: Percent Control"}}, "data": [{"molecule": "CN1CCN(C(=O)c2ccc3cc(CCNc4ccnc5ccc(C#N)cc45)ccc3c2)CC1", "note": "[compound 6148, 4-((2-(6-(4-methylpiperazine-1-carbonyl)naphthalen-2-yl)ethyl)amino)quinoline-6-carbonitrile]", "values": [{"measurement": "remaining binding at 2 µM", "setting": "YANK3 (STK32C)", "value": 100, "unit": "%"}, {"measurement": "remaining binding at 2 µM", "setting": "RET(M918T)", "value": 85, "unit": "%"}, {"measurement": "remaining binding at 2 µM", "setting": "CAMKK1", "value": 100, "unit": "%"}, {"measurement": "remaining binding at 2 µM", "setting": "PIK3CA(C420R)", "value": 73, "unit": "%"}, {"measurement": "remaining binding at 2 µM", "setting": "NEK7", "value": 94, "unit": "%"}, {"measurement": "remaining binding at 2 µM", "setting": "GRK3 (ADRBK2)", "value": 73, "unit": "%"}, {"measurement": "remaining binding at 2 µM", "setting": "PIK3CA(E545A)", "value": 73, "unit": "%"}, {"measurement": "remaining binding at 2 µM", "setting": "CTK (MATK)", "value": 56, "unit": "%"}, {"measurement": "remaining binding at 2 µM", "setting": "CDKL3", "value": 87, "unit": "%"}, {"measurement": "remaining binding at 2 µM", "setting": "GRK4", "value": 100, "unit": "%"}, {"measurement": "remaining binding at 2 µM", "setting": "PIK3CA(H1047L)", "value": 84, "unit": "%"}, {"measurement": "remaining binding at 2 µM", "setting": "RET", "value": 100, "unit": "%"}, {"measurement": "remaining binding at 2 µM", "setting": "IRAK1", "value": 45, "unit": "%"}, {"measurement": "remaining binding at 2 µM", "setting": "PRKCQ", "value": 100, "unit": "%"}, {"measurement": "remaining binding at 2 µM", "setting": "STK16", "value": 71, "unit": "%"}, {"measurement": "remaining binding at 2 µM", "setting": "TLK2", "value": 88, "unit": "%"}, {"measurement": "remaining binding at 2 µM", "setting": "TRKA (NTRK1)", "value": 53, "unit": "%"}, {"measurement": "remaining binding at 2 µM", "setting": "FLT1", "value": 99, "unit": "%"}, {"measurement": "remaining binding at 2 µM", "setting": "FER", "value": 91, "unit": "%"}, {"measurement": "remaining binding at 2 µM", "setting": "CDK4-cyclinD1", "value": 83, "unit": "%"}, {"measurement": "remaining binding at 2 µM", "setting": "PIK3CA", "value": 90, "unit": "%"}, {"measurement": "remaining binding at 2 µM", "setting": "PIK4CB (PI4KB)", "value": 51, "unit": "%"}, {"measurement": "Mouse survival of the metastatic disease", "setting": "[1]", "value": "significantly increased"}, {"measurement": "remaining binding at 2 µM", "setting": "PIK3CG", "value": 76, "unit": "%"}, {"measurement": "Percent Control", "setting": "FLT3(ITD)", "value": 97, "unit": "%"}, {"measurement": "remaining binding at 2 µM", "setting": "FLT3(D835H)", "value": 88, "unit": "%"}, {"measurement": "remaining binding at 2 µM", "setting": "DRAK1 (STK17A)", "value": 100, "unit": "%"}, {"measurement": "remaining binding at 2 µM", "setting": "RIPK4", "value": 57, "unit": "%"}, {"measurement": "remaining binding at 2 µM", "setting": "MYLK4", "value": 98, "unit": "%"}, {"measurement": "remaining binding at 2 µM", "setting": "SIK (SIK1)", "value": 91, "unit": "%"}, {"measurement": "remaining binding at 2 µM", "setting": "SGK2", "value": 61, "unit": "%"}, {"measurement": "remaining binding at 2 µM", "setting": "p38-gamma (MAPK12)", "value": 100, "unit": "%"}, {"measurement": "remaining binding at 2 µM", "setting": "LRRK2(G2019S)", "value": 56, "unit": "%"}, {"measurement": "remaining binding at 2 µM", "setting": "ACVR2B", "value": 90, "unit": "%"}, {"measurement": "remaining binding at 2 µM", "setting": "CLK1", "value": 60, "unit": "%"}, {"measurement": "remaining binding at 2 µM", "setting": "PRKD3", "value": 100, "unit": "%"}, {"measurement": "remaining binding at 2 µM", "setting": "[2]", "value": 81, "unit": "%"}]}]}
